# Data as given in PubChem BioAssay (NCI).
#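 Five compound concentrations were applied to cells in 96-well plates for 48 hours; endpoints were derived by simple linear interpolation of the resulting dose-response curve. GI50 marks 50% less growth. TGI: total growth inhibition.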
# Key:
# Assay in all cases: NCI-60 cell line screen, 48 h
# [1] = tested on: 786-0 renal
# [2] = tested on: A498 renal
# [3] = tested on: A549 NSCLC
# [4] = tested on: ACHN renal
# [5] = tested on: BT-549 breast
# [6] = tested on: CAKI-1 renal
# [7] = tested on: CCRF-CEM leukemia
# [8] = tested on: COLO 205 colon
# [9] = tested on: DU-145 prostate
# [10] = tested on: EKVX NSCLC
# [11] = tested on: HCC-2998 colon
# [12] = tested on: HCT-116 colon
# [13] = tested on: HCT-15 colon
# [14] = tested on: HL-60(TB) leukemia
# [15] = tested on: HOP-62 NSCLC
# [16] = tested on: HOP-92 NSCLC
# [17] = tested on: HS 578T breast
# [18] = tested on: HT29 colon
# [19] = tested on: IGROV1 ovarian
# [20] = tested on: K-562 leukemia
# [21] = tested on: KM12 colon
# [22] = tested on: LOX IMVI melanoma
# [23] = tested on: M14 melanoma
# [24] = tested on: MALME-3M melanoma
# [25] = tested on: MCF7 breast
# [26] = tested on: MDA-MB-231 breast
# [27] = tested on: MDA-MB-435
# [28] = tested on: MOLT-4 leukemia
# [29] = tested on: NCI-H226 lung
# [30] = tested on: NCI-H460 lung
# [31] = tested on: NCI-H522 lung
# [32] = tested on: NCI/ADR-RES ovarian
# [33] = tested on: OVCAR-4 ovarian
# [34] = tested on: OVCAR-5 ovarian
# [35] = tested on: OVCAR-8 ovarian
# [36] = tested on: PC-3 prostate
# [37] = tested on: RPMI-8226 leukemia
# [38] = tested on: RXF 393 renal
# [39] = tested on: SF-268 CNS
# [40] = tested on: SF-295 CNS
# [41] = tested on: SF-539 CNS
# [42] = tested on: SK-MEL-2 melanoma
# [43] = tested on: SK-MEL-28 melanoma
# [44] = tested on: SK-MEL-5 melanoma
# [45] = tested on: SK-OV-3 ovarian
# [46] = tested on: SN12C renal
# [47] = tested on: SNB-19 CNS
# [48] = tested on: SNB-75 CNS
# [49] = tested on: SR leukemia
# [50] = tested on: SW-620 colon
# [51] = tested on: T-47D breast
# [52] = tested on: TK-10 renal
# [53] = tested on: U251 CNS
# [54] = tested on: UACC-257 melanoma
# [55] = tested on: UACC-62 melanoma
# [56] = tested on: UO-31 renal
compound,measurement,setting,value
CNC(=O)c1cc(N2CCc3cc(NC(=O)Nc4ccc(N5CCOCC5)c(C(F)(F)F)c4)ccc32)ccn1,GI50,[1],1440 nM
same,TGI,[1],18900 nM
same,GI50,[2],1690 nM
same,TGI,[2],25100 nM
same,GI50,[3],1620 nM
same,TGI,[3],> 33300 nM
same,GI50,[4],1900 nM
same,TGI,[4],> 33300 nM
same,GI50,[5],1040 nM
same,TGI,[5],2750 nM
same,GI50,[6],3840 nM
same,TGI,[6],> 33300 nM
same,GI50,[7],1470 nM
same,TGI,[7],> 33300 nM
same,GI50,[8],1150 nM
same,TGI,[8],22000 nM
same,GI50,[9],3040 nM
same,TGI,[9],> 33300 nM
same,GI50,[10],4160 nM
same,TGI,[10],> 33300 nM
same,GI50,[11],2510 nM
same,TGI,[11],> 33300 nM
same,GI50,[12],1170 nM
same,TGI,[12],10500 nM
same,GI50,[13],1170 nM
same,TGI,[13],> 33300 nM
same,GI50,[14],904 nM
same,TGI,[14],5500 nM
same,GI50,[15],2560 nM
same,TGI,[15],25000 nM
same,GI50,[16],899 nM
same,TGI,[16],5540 nM
same,GI50,[17],779 nM
same,TGI,[17],2940 nM
same,GI50,[18],1640 nM
same,TGI,[18],> 33300 nM
same,GI50,[19],1430 nM
same,TGI,[19],> 33300 nM
same,GI50,[20],996 nM
same,TGI,[20],> 33300 nM
same,GI50,[21],293 nM
same,TGI,[21],> 33300 nM
same,GI50,[22],1510 nM
same,TGI,[22],17900 nM
same,GI50,[23],1410 nM
same,TGI,[23],25000 nM
same,GI50,[24],2130 nM
same,TGI,[24],> 33300 nM
same,GI50,[25],1560 nM
same,TGI,[25],> 33300 nM
same,GI50,[26],2470 nM
same,TGI,[26],> 33300 nM
same,GI50,[27],2710 nM
same,TGI,[27],> 33300 nM
same,GI50,[28],1210 nM
same,TGI,[28],31100 nM
same,GI50,[29],1330 nM
same,TGI,[29],> 33300 nM
same,GI50,[30],1210 nM
same,TGI,[30],27300 nM
same,GI50,[31],1290 nM
same,TGI,[31],16300 nM
same,GI50,[32],2160 nM
same,TGI,[32],> 33300 nM
same,GI50,[33],1690 nM
same,TGI,[33],> 33300 nM
same,GI50,[34],4950 nM
same,TGI,[34],> 33300 nM
same,GI50,[35],1800 nM
same,TGI,[35],> 33300 nM
same,GI50,[36],1170 nM
same,TGI,[36],> 33300 nM
same,GI50,[37],614 nM
same,TGI,[37],2500 nM
same,GI50,[38],775 nM
same,TGI,[38],2110 nM
same,GI50,[39],5700 nM
same,TGI,[39],> 33300 nM
same,GI50,[40],689 nM
same,TGI,[40],2550 nM
same,GI50,[41],600 nM
same,TGI,[41],> 33300 nM
same,GI50,[42],1130 nM
same,TGI,[42],5730 nM
same,GI50,[43],3520 nM
same,TGI,[43],> 33300 nM
same,GI50,[44],1100 nM
same,TGI,[44],4720 nM
same,GI50,[45],7160 nM
same,TGI,[45],> 33300 nM
same,GI50,[46],1260 nM
same,TGI,[46],> 33300 nM
same,GI50,[47],3870 nM
same,TGI,[47],> 33300 nM
same,GI50,[48],1140 nM
same,TGI,[48],13800 nM
same,GI50,[49],946 nM
same,TGI,[49],> 33300 nM
same,GI50,[50],2340 nM
same,TGI,[50],> 33300 nM
same,GI50,[51],908 nM
same,TGI,[51],9030 nM
same,GI50,[52],11300 nM
same,TGI,[52],> 33300 nM
same,GI50,[53],1320 nM
same,TGI,[53],> 33300 nM
same,GI50,[54],3230 nM
same,TGI,[54],> 33300 nM
same,GI50,[55],776 nM
same,TGI,[55],1970 nM
same,GI50,[56],1210 nM
same,TGI,[56],25100 nM
